Reference: the supplement of paper PMC5662764
± gives the standard deviation of the averaged measurements.

How the values were obtained:
Experiment in all cases: normalised growth rate inhibition (GR value) relative to DMSO control (GR (1 = untreated growth, 0 = cytostasis, <0 = cytotoxic)); higher = less growth inhibition
Conditions in all cases: 72 h
MDAMB231 = system: MDAMB231
Method: (§1)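 Breast cancer cell lines (BT-20, Hs 578T, MCF 10A, MCF7, MDA-MB-231, SK-BR-3) were plated in 384-well plates and treated 24 h later with drugs at six concentrations (0.04-10 µM). Viable cells were counted by Hoechst/dead-cell-stain imaging at 0 and 72 h. Counts were normalised to DMSO controls on the same plate to give the relative cell count and the growth-rate inhibition (GR) value; technical plate triplicates were averaged for each biological replicate.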

HS578T = system: HS578T
Method: as §1

BT20 = system: BT20
Method: as §1

MCF10A = system: MCF10A
Method: as §1

MCF7 = system: MCF7
Method: as §1

SKBR3 = system: SKBR3
Method: as §1

Structure (SMILES)	normalised growth rate inhibition (MDAMB231; 0.04 µM)	normalised growth rate inhibition (MDAMB231; 0.12 µM)	normalised growth rate inhibition (MDAMB231; 0.37 µM)	normalised growth rate inhibition (MDAMB231; 1.11 µM)	normalised growth rate inhibition (MDAMB231; 3.33 µM)	normalised growth rate inhibition (MDAMB231; 10 µM)	normalised growth rate inhibition (HS578T; 0.04 µM)	normalised growth rate inhibition (HS578T; 0.12 µM)	normalised growth rate inhibition (HS578T; 0.37 µM)	normalised growth rate inhibition (HS578T; 1.11 µM)	normalised growth rate inhibition (HS578T; 3.33 µM)	normalised growth rate inhibition (HS578T; 10 µM)	normalised growth rate inhibition (BT20; 0.04 µM)	normalised growth rate inhibition (BT20; 0.12 µM)	normalised growth rate inhibition (BT20; 0.37 µM)	normalised growth rate inhibition (BT20; 1.11 µM)	normalised growth rate inhibition (BT20; 3.33 µM)	normalised growth rate inhibition (BT20; 10 µM)	normalised growth rate inhibition (MCF10A; 0.04 µM)	normalised growth rate inhibition (MCF10A; 0.12 µM)	normalised growth rate inhibition (MCF10A; 0.37 µM)	normalised growth rate inhibition (MCF10A; 1.11 µM)	normalised growth rate inhibition (MCF10A; 3.33 µM)	normalised growth rate inhibition (MCF10A; 10 µM)	normalised growth rate inhibition (MCF7; 0.04 µM)	normalised growth rate inhibition (MCF7; 0.12 µM)	normalised growth rate inhibition (MCF7; 0.37 µM)	normalised growth rate inhibition (MCF7; 1.11 µM)	normalised growth rate inhibition (MCF7; 3.33 µM)	normalised growth rate inhibition (MCF7; 10 µM)	normalised growth rate inhibition (SKBR3; 0.04 µM)	normalised growth rate inhibition (SKBR3; 0.12 µM)	normalised growth rate inhibition (SKBR3; 0.37 µM)	normalised growth rate inhibition (SKBR3; 1.11 µM)	normalised growth rate inhibition (SKBR3; 3.33 µM)	normalised growth rate inhibition (SKBR3; 10 µM)
Cc1nc(NC(=O)N2CCC[C@H]2C(N)=O)sc1-c1ccnc(C(C)(C)C(F)(F)F)c1	0.997 ± 0.058	0.986 ± 0.038	0.963 ± 0.048	0.935 ± 0.032	0.89 ± 0.015	0.65 ± 0.09	0.971 ± 0.012	0.9151 ± 0.001	0.871 ± 0.026	0.838 ± 0.026	0.762 ± 0.011	0.561 ± 0.051	1.04 ± 0.017	0.979 ± 0.048	0.722 ± 0.027	0.553 ± 0.12	0.123 ± 0.047	-0.157 ± 0.072	0.976 ± 0.022	0.94 ± 0.041	0.896 ± 0.061	0.865 ± 0.064	0.77 ± 0.11	0.439 ± 0.14	0.871 ± 0.11	0.701 ± 0.1	0.508 ± 0.14	0.365 ± 0.11	0.204 ± 0.099	-0.0344 ± 0.057	0.896 ± 0.061	0.811 ± 0.059	0.679 ± 0.051	0.553 ± 0.039	0.323 ± 0.11	-0.0922 ± 0.15
Cn1cc(-c2[nH]c3cc(NC(=O)[C@H](N)C4CCCCC4)cc4c3c2C=NNC4=O)cn1	0.903 ± 0.039	0.913 ± 0.087	0.747 ± 0.14	0.535 ± 0.21	0.297 ± 0.22	-0.0135 ± 0.14	0.956 ± 0.018	0.601 ± 0.064	0.107 ± 0.12	-0.0219 ± 0.17	-0.0376 ± 0.14	-0.103 ± 0.15	0.886 ± 0.045	0.96 ± 0.035	0.9538 ± 0.0067	0.931 ± 0.027	0.8 ± 0.063	0.129 ± 0.15	0.9601 ± 0.0087	0.914 ± 0.022	0.83 ± 0.037	0.63 ± 0.071	0.267 ± 0.17	-0.0312 ± 0.061	0.579 ± 0.056	0.411 ± 0.041	0.335 ± 0.04	0.235 ± 0.032	0.178 ± 0.018	0.0527 ± 0.038	-0.00482 ± 0.19	-0.09 ± 0.2	-0.136 ± 0.17	-0.151 ± 0.18	-0.174 ± 0.14	-0.183 ± 0.2
N#CC(c1ccnc(NCCc2cccnc2)n1)c1nc2ccccc2s1 (stereo not drawn)	0.906 ± 0.026	0.905 ± 0.023	0.92 ± 0.023	0.94 ± 0.066	0.95 ± 0.096	0.726 ± 0.076	0.988 ± 0.016	1.01 ± 0.022	1.023 ± 0.0087	1.025 ± 0.0078	1.03 ± 0.023	0.932 ± 0.06	0.879 ± 0.031	0.922 ± 0.034	0.999 ± 0.044	1.03 ± 0.05	1.05 ± 0.035	1 ± 0.11	0.993 ± 0.015	0.986 ± 0.011	0.982 ± 0.011	0.987 ± 0.012	0.987 ± 0.016	0.707 ± 0.14	0.812 ± 0.044	0.877 ± 0.091	0.923 ± 0.12	0.883 ± 0.076	0.945 ± 0.085	0.659 ± 0.071	0.669 ± 0.056	0.809 ± 0.11	0.876 ± 0.081	0.84 ± 0.098	0.749 ± 0.13	0.383 ± 0.056
Nc1ccc(C(=O)Nc2cccc(-c3nc(N4CCOCC4)c4oc5ncccc5c4n3)c2)cn1	1.04 ± 0.032	0.954 ± 0.058	0.869 ± 0.082	0.747 ± 0.094	0.657 ± 0.14	0.0924 ± 0.24	1.02 ± 0.029	0.984 ± 0.013	0.972 ± 0.033	0.865 ± 0.022	0.668 ± 0.029	0.13 ± 0.053	1.06 ± 0.025	0.999 ± 0.032	0.938 ± 0.029	0.746 ± 0.053	0.577 ± 0.07	0.0483 ± 0.094	1.015 ± 0.0057	0.989 ± 0.01	0.951 ± 0.022	0.824 ± 0.025	0.734 ± 0.051	0.301 ± 0.043	1.06 ± 0.031	0.963 ± 0.034	0.856 ± 0.046	0.606 ± 0.041	0.37 ± 0.12	-0.043 ± 0.35	1.12 ± 0.043	1.03 ± 0.053	1.03 ± 0.075	0.89 ± 0.072	0.769 ± 0.052	0.17 ± 0.047
O=C(NOCC1CC1)c1ccc(F)c(F)c1Nc1ccc(I)cc1Cl	0.992 ± 0.058	0.8538 ± 0.0075	0.77 ± 0.023	0.63 ± 0.057	0.513 ± 0.05	0.181 ± 0.087	0.783 ± 0.081	0.686 ± 0.097	0.605 ± 0.12	0.528 ± 0.12	0.476 ± 0.094	0.267 ± 0.067	1.05 ± 0.03	1.032 ± 0.009	1.01 ± 0.043	0.9868 ± 0.0023	0.95 ± 0.018	0.289 ± 0.18	0.661 ± 0.016	0.547 ± 0.058	0.454 ± 0.059	0.371 ± 0.079	0.279 ± 0.068	0.165 ± 0.07	0.915 ± 0.15	0.81 ± 0.13	0.718 ± 0.059	0.646 ± 0.074	0.574 ± 0.034	0.344 ± 0.037	1.08 ± 0.054	1.05 ± 0.048	1.04 ± 0.023	1.02 ± 0.031	0.972 ± 0.077	0.611 ± 0.061
O=C(NOC[C@H](O)CO)c1ccc(F)c(F)c1Nc1ccc(I)cc1F	0.605 ± 0.043	0.413 ± 0.029	0.264 ± 0.033	0.0779 ± 0.1	-0.0448 ± 0.12	-0.0975 ± 0.13	0.513 ± 0.088	0.402 ± 0.055	0.328 ± 0.023	0.247 ± 0.061	0.119 ± 0.078	0.0542 ± 0.11	0.907 ± 0.095	0.864 ± 0.059	0.838 ± 0.1	0.708 ± 0.14	0.565 ± 0.086	0.439 ± 0.064	0.263 ± 0.072	0.184 ± 0.072	0.175 ± 0.077	0.134 ± 0.083	0.0915 ± 0.085	0.0555 ± 0.074	0.608 ± 0.044	0.539 ± 0.02	0.503 ± 0.05	0.442 ± 0.039	0.254 ± 0.06	0.0358 ± 0.091	0.953 ± 0.066	0.902 ± 0.057	0.913 ± 0.049	0.728 ± 0.027	0.445 ± 0.05	0.196 ± 0.14
O=C1NC(=O)/C(=C/c2ccc3nccc(-c4ccncc4)c3c2)S1	1.03 ± 0.083	0.992 ± 0.052	0.912 ± 0.049	0.513 ± 0.18	0.131 ± 0.25	-0.0544 ± 0.27	0.948 ± 0.035	0.835 ± 0.057	0.647 ± 0.083	0.372 ± 0.044	0.0713 ± 0.13	-0.118 ± 0.12	0.934 ± 0.086	0.638 ± 0.15	0.192 ± 0.15	-0.221 ± 0.082	-0.352 ± 0.1	-0.44 ± 0.1	0.987 ± 0.039	0.887 ± 0.11	0.608 ± 0.17	0.143 ± 0.074	-0.0425 ± 0.058	-0.115 ± 0.059	0.983 ± 0.059	0.844 ± 0.057	0.581 ± 0.08	0.224 ± 0.075	-0.0358 ± 0.081	-0.203 ± 0.081	0.987 ± 0.084	0.81 ± 0.14	0.541 ± 0.15	0.0268 ± 0.1	-0.291 ± 0.12	-0.421 ± 0.12
c1ccc2c(-c3cnn4cc(-c5ccc(N6CCNCC6)cc5)cnc34)ccnc2c1	0.996 ± 0.073	0.938 ± 0.084	0.925 ± 0.072	0.727 ± 0.056	0.0105 ± 0.45	-0.355 ± 0.038	0.952 ± 0.025	0.911 ± 0.011	0.897 ± 0.027	0.862 ± 0.072	0.244 ± 0.58	-0.361 ± 0.083	0.994 ± 0.036	0.905 ± 0.039	0.915 ± 0.093	0.645 ± 0.21	-0.08 ± 0.34	-0.507 ± 0.082	0.999 ± 0.014	0.9817 ± 0.0032	0.9705 ± 0.0076	0.953 ± 0.032	0.661 ± 0.34	-0.396 ± 0.11	1.08 ± 0.047	1 ± 0.075	1.01 ± 0.072	0.868 ± 0.044	0.258 ± 0.34	-0.368 ± 0.019	1.09 ± 0.11	1.04 ± 0.11	1.09 ± 0.056	0.987 ± 0.048	-0.0902 ± 0.23	-0.515 ± 0.11
